≈ marks a conversion by molar mass, not a printed value. Where “and” joins values, the source holds several entries; their conditions need not be identical. Equal entries are not always repeated. Where two headings read alike, the source gives them in different places.
Legend:
[1] = test system: multi-drug resistant (MDR) lung carcinoma cell line H69/LX4; experiment: cells; details: for INCREASED SENSITIVITY H69/Lx4: Table VIII, values equal IC50 NONE / IC50 with VB 25 ng/ml of Table VII, 10080 min; for MDR reversal properties: with doxorubicin 12,5 ng/ml or vinblastine 25 ng/ml, FIGS. 4 to 7
Protocol: (§1) The riminophenazines of the above formula (I), contain an imino group. […] The potency of compounds of the above general formula, as inhibitors of multi-drug resistance, was assessed by sensitization of a P-glycoprotein positive cell line to drugs associated with this form of resistance. A human small cell lung cancer cell line H 69/P as well as a multi-drug resistance (MDR) sub-line H69/LX4 were used. These cell lines were obtained from the Medical Research Council Clinical Oncology and Radiotherapeutics Unit, Hills Road, Cambridge, England. The H69/LX4 line was selected in vitro by progressive exposure to increasing concentrations of doxorubicin in order to increase P-glycoprotein expression.
(§2) The cell lines used were human small cell lung cancer cell line HP69/P and a multi-drug resistant (MDR) sub-line H69/LX4, both of which were supplied by the MRC Clinical Oncology and Radiotherapeutics Unit, Hills Road, Cambridge, England. The maintenance of the cell lines and drug response assays was done as described by Twentyman et al in British Journal of Cancer Volume 65 pages 335-340. The H69/LX4 line was originally described by Twentyman et al in British Journal of Cancer Volume 53, pages 529-637 (1986).
(§3) The data in parenthesis represents fold sensitivity compared with the chemotherapeutic agent without the MDR inhibitor.
The results obtained, are illustrated graphically in FIGS. 4 to 7 of the accompanying drawings.
(§4) The general procedure set forth above was followed, i.e. 7 days incubation in the4 presence of doxorubicin at 12,5 ng/ml or vinblastine at 25 or 3 ng/ml.
(§5) The effects were examined over a seven (7) day exposure to different concentrations of B4119 and B4125 on the sensitivity of a doxorubicin resistant leukaemia cell line (K562/MMB) and a lung carcinoma cell line (H69/LX4) to doxorubicin (dox) and vinblastine (VB) using the MTT assay.

[2] = test system: MDR leukaemia cell line K562/MMB; experiment: cells; details: for INCREASED SENSITIVITY K 562/MMB: Table VIII, values equal IC50 NONE / IC50 with VB 3 ng/ml of Table VII, 10080 min; for MDR activity / sensitivity against cell line K562/MMP: compared with known reference compound B4100
Protocol: A third cell line (562/MMB) used was a MDR leukemia cell line selected in vitro by progressive exposure to increasing concentrations of vinblastine in order to increase P-glycoprotein expression. This cell line was developed in the Department of Immunology, University of Pretoria from K562 (ATCC CCL 243) supplied by Highveld Biological (Pty) Ltd, Sandton.
as §4, §5

[3] = test system: gram positive microorganisms (Mycobacterium, Enterococcus, Streptococcus, methicillin resistant Staphylococcus); experiment: anti-bacterial activity
[4] = test system: H69/LX4 cells; experiment: [14C]-vinblastine accumulation in MDR cell line; format: cell-based, human; details: 1 hour pretreatment, 30 minutes [14C]-vinblastine
Protocol: The effect of riminophenazines on the accumulation of [^14 C]-vinblastine was investigated. For these experiments, both of the above cell lines (H69/LX4 and H69/P) were prepared as described by Coley et al (Biochem. Pharmacal 38, 4467-4475 (1989)). After a 1 hour pretreatment with the MDR reversal agents, cells (1×10^6 /ml) were exposed to […] [^14 C]-vinblastine (1 μCi specific activity) for 30 minutes.

[5] = test system: human small cell lung cancer cell line H69/P; experiment: MTT assay, 7 day exposure, sensitivity of parent cell line H69/P to chemotherapeutic agents; format: cell-based; details: H69/P; CsA 5 μg/ml, clofazimine 1 μg/ml or B669 0.5 μg/ml
Protocol: as §1, §2, §3

[6] = bio-availability (no method given)
[7] = Homo sapiens, 168 h, read-out: IC 50 H69/Lx4 NONE
[8] = Homo sapiens, read-out: IC 50 H69/Lx4 DOX 12 ng/ml
[9] = Homo sapiens, read-out: IC 50 H69/Lx4 VB 25 ng/ml
[10] = Homo sapiens, read-out: IC50 H69/LX4 +VB (25 ng/ml)
[11] = Homo sapiens, read-out: IC50 H69/LX4 +dox (12 ng/ml)
[12] = Homo sapiens, read-out: IC50 H69/LX4 none
[13] = Homo sapiens, K562, 168 h, read-out: IC 50 K562/MMB NONE
[14] = Homo sapiens, K562, read-out: IC50 K562/MMB +VB (3 ng/ml), Table VI, with vinblastine 3 ng/ml
[15] = Homo sapiens, K562, read-out: IC50 K562/MMB +dox (12 ng/ml), Table VI, with doxorubicin 12 ng/ml
[16] = Homo sapiens, K562, read-out: IC 50 K562/MMB DOX 12 ng/ml, Table VII, with doxorubicin 12 ng/ml
[17] = Homo sapiens, K562, read-out: IC 50 K562/MMB VB 3 ng/ml, Table VII, with vinblastine 3 ng/ml
[18] = Homo sapiens, K562, read-out: IC50 K562/MMB none
[19] = H69/LX4, CsA 5 μg/ml, clofazimine 1 μg/ml or B669 0.5 μg/ml

SMILES | IC50 [1, 7] [mg/L] | IC50 [1, 8] [mg/L] | IC50 [1, 9] [mg/L] | INCREASED SENSITIVITY H69/Lx4 [1] | INCREASED SENSITIVITY K 562/MMB [2] | anti-bacterial activity [3] | IC50 [2, 16] [mg/L] | IC50 [2, 17] [mg/L] | MDR activity / sensitivity against cell line K562/MMP [2] | other results
CC1(C)CC(N=c2cc3n(-c4cccc(C(F)(F)F)c4)c4ccccc4nc-3cc2Nc2cccc(C(F)(F)F)c2)CC(C)(C)N1 [Compound B4126, N,5-bis(3-trifluoromethyl-phenyl)-3,5-dihydro-3-[(2',2',6',6'-tetramethyl-4-piperidyl)-imino]-2-phenazinamine] | 0.699 (≈ 1.1 µM) | 0.455 (≈ 0.714 µM) | 0.26 (≈ 0.408 µM) | 2.69 | 4.45 | Particularly active | – | – | – | –
CC1(C)CC(N=c2cc3n(-c4ccccc4Cl)c4ccccc4nc-3cc2Nc2ccccc2Cl)CC(C)(C)N1 [Compound B4125, N,5-bis(2-chlorophenyl)-3,5-dihydro-3-[(2',2',6',6'-tetramethyl-4-piperidyl)-imino]-2-phenazinamine] | 0.785 (≈ 1.38 µM) | 0.521 (≈ 0.913 µM) | 0.399 (≈ 0.699 µM) | 1.97 | 11.96 | Particularly active | 0.188 (≈ 0.329 µM) | 0.026 (≈ 0.0456 µM) | exceptionally good activity | IC50 [1, 10]: 0.399 mg/L (≈ 0.699 µM); IC50 [1, 11]: 0.521 mg/L (≈ 0.913 µM); IC50 [1, 12]: 0.785 mg/L (≈ 1.38 µM); IC50 [2, 13]: 0.311 mg/L (≈ 0.545 µM); IC50 [2, 14]: 0.026 mg/L (≈ 0.0456 µM); IC50 [2, 15]: 0.188 mg/L (≈ 0.329 µM); IC50 [2, 18]: 0.311 mg/L (≈ 0.545 µM)
c1ccc(Nc2cc3nc4ccccc4n(-c4ccccc4)c-3cc2=NC2CCCCC2)cc1 [Compound B669] | 1 (≈ 2.25 µM) | 0.996 (≈ 2.24 µM) | 0.254 (≈ 0.571 µM) | 3.94 | 6.04 | – | – | 0.023 (≈ 0.0517 µM) | good activity | fold sensitivity to Cyclophosphamide compared with agent without MDR inhibitor [1, 19]: 1.1 fold; fold sensitivity to Daunorubicin compared with agent without MDR inhibitor [1, 19]: 2.4 fold; fold sensitivity to Doxorubicin compared with agent without MDR inhibitor [1, 19]: 6.9 fold; fold sensitivity to Etoposide compared with agent without MDR inhibitor [1, 19]: 14.4 fold; fold sensitivity to Methotrexate compared with agent without MDR inhibitor [1, 19]: 0.9 fold; fold sensitivity to Mitomycin C compared with agent without MDR inhibitor [1, 19]: 2.5 fold; fold sensitivity to Vinblastine compared with agent without MDR inhibitor [1, 19]: 13.7 fold and ~13 fold; vinblastine accumulation in the MDR cell line [4]: significant enhancement; fold sensitivity to Cyclophosphamide compared with agent without MDR inhibitor [5]: 1.0 fold; fold sensitivity to Daunorubicin compared with agent without MDR inhibitor [5]: 1.2 fold; fold sensitivity to Doxorubicin compared with agent without MDR inhibitor [5]: 1.0 fold; fold sensitivity to Etoposide compared with agent without MDR inhibitor [5]: 1.2 fold; fold sensitivity to Methotrexate compared with agent without MDR inhibitor [5]: 1.0 fold; fold sensitivity to Mitomycin C compared with agent without MDR inhibitor [5]: 0.7 fold; fold sensitivity to Vinblastine compared with agent without MDR inhibitor [5]: 1.1 fold
CC1(C)CC(N=c2cc3n(-c4ccc(C(F)(F)F)cc4)c4ccccc4nc-3cc2Nc2ccc(C(F)(F)F)cc2)CC(C)(C)N1 [Compound B4103, N,5-bis(4-trifluoromethylphenyl)-3,5-dihydro-3[(2',2',6',6'-tetramethyl-4-piperidyl)imino]-2-phenazinamine] | 0.755 (≈ 1.18 µM) | 0.552 (≈ 0.866 µM) | 0.145 (≈ 0.227 µM) | 5.21 | 0.69 | – | – | – | – | MDR reversal properties ([1]; H69/LX4): Very good MDR reversal properties; bio-availability [6]: good bio-availability
CC1(C)CC(N=c2cc3n(-c4cc(Cl)cc(Cl)c4)c4ccccc4nc-3cc2Nc2cc(Cl)cc(Cl)c2)CC(C)(C)N1 [Compound B4121, N,5-bis(3,5-dichiorophenyl)-3,5-dihydro-3-[(2',2',6',6'-tetramethyl-4-pipendyl)-imino]-2-phenazinamine] | 1.23 (≈ 1.92 µM) | 0.524 (≈ 0.819 µM) | 0.162 (≈ 0.253 µM) | 7.57 | 97.83 | Particularly active | – | 0.023 (≈ 0.036 µM) | increased substantially and unexpectedly | –
CC1(C)CC(N=c2cc3n(-c4cccc(Cl)c4)c4ccccc4nc-3cc2Nc2cccc(Cl)c2)CC(C)(C)N1 [Compound B4112, N,5-bis(3-chlorophenyl)-3,5-dihydro-3-[(2',2',6',6'-tetramethyl-4-piperidyl)-imino]-2-phenazinamine] | 0.62 (≈ 1.09 µM) | 0.175 (≈ 0.307 µM) | 0.029 (≈ 0.0508 µM) | 21.38 | 19.5 | – | 0.066 (≈ 0.116 µM) | 0.008 (≈ 0.014 µM) | exceptionally good activity | MDR activity against the cell line H69/LX4 [1]: very good activity; IC50 ([1]; Homo sapiens, read-out: IC50, plus VB): 0.029 mg/L; IC50 ([1]; Homo sapiens, read-out: IC50, plus doxo): 0.62 mg/L; direct cytotoxic activity [2]: direct cytotoxic activity in this cell line at reasonably low concentrations; IC50 ([2]; Homo sapiens, K562, 168 h, read-out: IC 50 K562/MMB NONE, Table VII, riminophenazine alone, 7 day): 0.156 mg/L (≈ 0.273 µM); IC50 ([2]; Homo sapiens, K562, read-out: IC50, alone, Table V, K562/MMB (first value column, head not given)): 0.156 mg/L (≈ 0.273 µM); IC50 ([2]; Homo sapiens, K562, read-out: IC50, plus VB, Table V, K562/MMB, vinblastine 3 ng/ml): 0.008 mg/L; IC50 ([2]; Homo sapiens, K562, read-out: IC50, plus doxo, Table V, K562/MMB, doxorubicin 12 ng/ml): 0.066 mg/L; lowest concentration at which compound was active ([2]; K562/MMB, Example 6): 3 ng/mL
CC(C)c1ccc(Nc2cc3nc4ccccc4n(-c4ccc(C(C)C)cc4)c-3cc2=NC2CC(C)(C)NC(C)(C)C2)cc1 [Compound B4158, N,5-bis(4-isopropylphenyl)-3,5-dihydro-3-[(2',2',6',6'-tetramethyl-4-piperidyl)-imino]-2-phenazinamine] | 0.408 (≈ 0.696 µM) | 0.343 (≈ 0.585 µM) | 0.124 (≈ 0.212 µM) | 3.29 | 4.69 | – | – | – | – | MDR activity against the cell line H69/LX4 [1]: Reasonably good activity; MDR reversal properties ([1]; H69/LX4): Very good MDR reversal properties; bio-availability [6]: good bio-availability
CC1(C)CC(N=c2cc3n(-c4ccc(F)c(Cl)c4)c4ccccc4nc-3cc2Nc2ccc(F)c(Cl)c2)CC(C)(C)N1 [Compound B4119, N,5-bis(3-chloro-4-fluorophenyl)-3,5-dihydro-3-[(2',2',6',6'-tetramethyl-4-piperidyl)-imino]-2-phenazinamine] | 0.62 (≈ 1.02 µM) | 0.6 (≈ 0.989 µM) | 0.109 (≈ 0.18 µM) | 5.69 | 1.46 | Particularly active | 0.147 (≈ 0.242 µM) | 0.189 (≈ 0.312 µM) | – | IC50 [1, 10]: 0.109 mg/L (≈ 0.18 µM); IC50 [1, 11]: 0.6 mg/L (≈ 0.989 µM); IC50 [1, 12]: 0.62 mg/L (≈ 1.02 µM); IC50 [2, 13]: 0.276 mg/L (≈ 0.455 µM); IC50 [2, 14]: 0.189 mg/L (≈ 0.312 µM); IC50 [2, 15]: 0.147 mg/L (≈ 0.242 µM); IC50 [2, 18]: 0.276 mg/L (≈ 0.455 µM)
CC[C@]1(O)C[C@@H]2CN(CCc3c([nH]c4ccccc34)[C@@](C(=O)OC)(c3cc4c(cc3OC)N(C)[C@H]3[C@@](O)(C(=O)OC)[C@H](OC(C)=O)[C@]5(CC)C=CCN6CC[C@]43[C@@H]65)C2)C1 [Vinblastine, reference compound] | – | – | – | – | – | – | – | – | – | cytotoxicity at 0.025 µg/mL ([1]; Homo sapiens, 168 h, read-out: cytotoxic activity of chemotherapeutic agent at the concentration used with the riminophenazine): < 10%; cytotoxicity at 0.003 µg/mL ([2]; Homo sapiens, K562, 168 h, read-out: cytotoxic activity of chemotherapeutic agent at the concentration used with the riminophenazine): < 10%
